According to PubChem BioAssay (NCI):
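48-hour exposure; five concentrations; linearly interpolated endpoints. TGI denotes the concentration required for complete inhibition of growth.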

Tested on: COLO 205 colon
Test: NCI anticancer screen, dose series, 48 h

SMILES | TGI [µM]
COc1ccc(N2C(=O)C3ON(C(C(N)=O)c4ccccc4)C(c4cc5ccccc5c5ccccc45)C3C2=O)cc1 (stereo not given) | > 50
O=C1N[C@@H](c2c[nH]c3cc(Br)ccc23)C(=O)N[C@H]1c1c[nH]c2cc(Br)ccc12 | > 100
COc1ccccc1N1CCN(CCCN2/C(=C(\O)c3ccccc3)C(=O)c3c(C)cc(C)nc3S2(=O)=O)CC1 | > 100
CCn1c(SCC(=O)NNC(=S)Nc2ccc(C)cc2)nc2ccccc2c1=O | > 100
NC(=S)Nc1ccc(S(=O)(=O)Nc2ccc(S(N)(=O)=O)cc2)cc1 | > 100
COc1ccc(C2=Nn3c(nnc(Cc4ccc(Cl)cc4)c3=O)SC2)cc1 | > 100
COC1(OC)CC(CO)(CNc2nc(N)nc(Cl)c2/C=N\O)C1 | > 100
Cc1ccc(/C=C2\CCC/C(=C\c3ccc(O)c(CN4CCCCC4)c3)C2=O)cc1 | 44.6
COC(=O)CCc1cc(O)c2c(c1)C(C(=O)OC)C(c1ccc(O)c(O)c1)O2 (stereo not given) | > 100
Cc1ccc2c(c1)C1(C)OC(C=CC1=O)O2 (stereo not given) | 1.43

Tested on: BT-549 breast
Test: NCI anticancer screen, dose series, 48 h

SMILES | TGI [µM]
COc1ccc(N2C(=O)C3ON(C(C(N)=O)c4ccccc4)C(c4cc5ccccc5c5ccccc45)C3C2=O)cc1 (stereo not given) | > 50
O=C1N[C@@H](c2c[nH]c3cc(Br)ccc23)C(=O)N[C@H]1c1c[nH]c2cc(Br)ccc12 | > 100
COc1ccccc1N1CCN(CCCN2/C(=C(\O)c3ccccc3)C(=O)c3c(C)cc(C)nc3S2(=O)=O)CC1 | > 100
CCn1c(SCC(=O)NNC(=S)Nc2ccc(C)cc2)nc2ccccc2c1=O | > 100
NC(=S)Nc1ccc(S(=O)(=O)Nc2ccc(S(N)(=O)=O)cc2)cc1 | > 100
COc1ccc(C2=Nn3c(nnc(Cc4ccc(Cl)cc4)c3=O)SC2)cc1 | > 100
COC1(OC)CC(CO)(CNc2nc(N)nc(Cl)c2/C=N\O)C1 | > 100
Cc1ccc(/C=C2\CCC/C(=C\c3ccc(O)c(CN4CCCCC4)c3)C2=O)cc1 | 23.9
COC(=O)CCc1cc(O)c2c(c1)C(C(=O)OC)C(c1ccc(O)c(O)c1)O2 (stereo not given) | > 100
Cc1ccc2c(c1)C1(C)OC(C=CC1=O)O2 (stereo not given) | 1.57

Tested on: EKVX NSCLC
Test: NCI anticancer screen, dose series, 48 h

SMILES | TGI [µM]
COc1ccc(N2C(=O)C3ON(C(C(N)=O)c4ccccc4)C(c4cc5ccccc5c5ccccc45)C3C2=O)cc1 (stereo not given) | > 50
O=C1N[C@@H](c2c[nH]c3cc(Br)ccc23)C(=O)N[C@H]1c1c[nH]c2cc(Br)ccc12 | > 100
COc1ccccc1N1CCN(CCCN2/C(=C(\O)c3ccccc3)C(=O)c3c(C)cc(C)nc3S2(=O)=O)CC1 | > 100
CCn1c(SCC(=O)NNC(=S)Nc2ccc(C)cc2)nc2ccccc2c1=O | > 100
NC(=S)Nc1ccc(S(=O)(=O)Nc2ccc(S(N)(=O)=O)cc2)cc1 | > 100
COc1ccc(C2=Nn3c(nnc(Cc4ccc(Cl)cc4)c3=O)SC2)cc1 | > 100
COC1(OC)CC(CO)(CNc2nc(N)nc(Cl)c2/C=N\O)C1 | > 100
Cc1ccc(/C=C2\CCC/C(=C\c3ccc(O)c(CN4CCCCC4)c3)C2=O)cc1 | 27.8
COC(=O)CCc1cc(O)c2c(c1)C(C(=O)OC)C(c1ccc(O)c(O)c1)O2 (stereo not given) | > 100
Cc1ccc2c(c1)C1(C)OC(C=CC1=O)O2 (stereo not given) | 7.69

Tested on: DU-145 prostate
Test: NCI anticancer screen, dose series, 48 h

SMILES | TGI [µM]
COc1ccc(N2C(=O)C3ON(C(C(N)=O)c4ccccc4)C(c4cc5ccccc5c5ccccc45)C3C2=O)cc1 (stereo not given) | > 50
O=C1N[C@@H](c2c[nH]c3cc(Br)ccc23)C(=O)N[C@H]1c1c[nH]c2cc(Br)ccc12 | > 100
COc1ccccc1N1CCN(CCCN2/C(=C(\O)c3ccccc3)C(=O)c3c(C)cc(C)nc3S2(=O)=O)CC1 | > 100
CCn1c(SCC(=O)NNC(=S)Nc2ccc(C)cc2)nc2ccccc2c1=O | > 100
NC(=S)Nc1ccc(S(=O)(=O)Nc2ccc(S(N)(=O)=O)cc2)cc1 | > 100
COc1ccc(C2=Nn3c(nnc(Cc4ccc(Cl)cc4)c3=O)SC2)cc1 | > 100
COC1(OC)CC(CO)(CNc2nc(N)nc(Cl)c2/C=N\O)C1 | > 100
Cc1ccc(/C=C2\CCC/C(=C\c3ccc(O)c(CN4CCCCC4)c3)C2=O)cc1 | 16.6
COC(=O)CCc1cc(O)c2c(c1)C(C(=O)OC)C(c1ccc(O)c(O)c1)O2 (stereo not given) | > 83
Cc1ccc2c(c1)C1(C)OC(C=CC1=O)O2 (stereo not given) | 8.45

Tested on: SNB-19 CNS
Test: NCI anticancer screen, dose series, 48 h

SMILES | TGI [µM]
COc1ccc(N2C(=O)C3ON(C(C(N)=O)c4ccccc4)C(c4cc5ccccc5c5ccccc45)C3C2=O)cc1 (stereo not given) | > 50
O=C1N[C@@H](c2c[nH]c3cc(Br)ccc23)C(=O)N[C@H]1c1c[nH]c2cc(Br)ccc12 | > 100
COc1ccccc1N1CCN(CCCN2/C(=C(\O)c3ccccc3)C(=O)c3c(C)cc(C)nc3S2(=O)=O)CC1 | > 100
CCn1c(SCC(=O)NNC(=S)Nc2ccc(C)cc2)nc2ccccc2c1=O | > 100
NC(=S)Nc1ccc(S(=O)(=O)Nc2ccc(S(N)(=O)=O)cc2)cc1 | > 100
COc1ccc(C2=Nn3c(nnc(Cc4ccc(Cl)cc4)c3=O)SC2)cc1 | > 100
COC1(OC)CC(CO)(CNc2nc(N)nc(Cl)c2/C=N\O)C1 | > 100
Cc1ccc(/C=C2\CCC/C(=C\c3ccc(O)c(CN4CCCCC4)c3)C2=O)cc1 | 36.5
COC(=O)CCc1cc(O)c2c(c1)C(C(=O)OC)C(c1ccc(O)c(O)c1)O2 (stereo not given) | > 100
Cc1ccc2c(c1)C1(C)OC(C=CC1=O)O2 (stereo not given) | 8.97

Tested on: OVCAR-8 ovarian
Test: NCI anticancer screen, dose series, 48 h

SMILES | TGI [µM]
COc1ccc(N2C(=O)C3ON(C(C(N)=O)c4ccccc4)C(c4cc5ccccc5c5ccccc45)C3C2=O)cc1 (stereo not given) | > 50
O=C1N[C@@H](c2c[nH]c3cc(Br)ccc23)C(=O)N[C@H]1c1c[nH]c2cc(Br)ccc12 | > 100
COc1ccccc1N1CCN(CCCN2/C(=C(\O)c3ccccc3)C(=O)c3c(C)cc(C)nc3S2(=O)=O)CC1 | > 100
CCn1c(SCC(=O)NNC(=S)Nc2ccc(C)cc2)nc2ccccc2c1=O | > 100
NC(=S)Nc1ccc(S(=O)(=O)Nc2ccc(S(N)(=O)=O)cc2)cc1 | > 100
COc1ccc(C2=Nn3c(nnc(Cc4ccc(Cl)cc4)c3=O)SC2)cc1 | > 100
COC1(OC)CC(CO)(CNc2nc(N)nc(Cl)c2/C=N\O)C1 | > 100
Cc1ccc(/C=C2\CCC/C(=C\c3ccc(O)c(CN4CCCCC4)c3)C2=O)cc1 | 8.37
COC(=O)CCc1cc(O)c2c(c1)C(C(=O)OC)C(c1ccc(O)c(O)c1)O2 (stereo not given) | 65.1
Cc1ccc2c(c1)C1(C)OC(C=CC1=O)O2 (stereo not given) | 0.803

Tested on: NCI-H23 lung
Test: NCI anticancer screen, dose series, 48 h

SMILES | TGI [µM]
COc1ccc(N2C(=O)C3ON(C(C(N)=O)c4ccccc4)C(c4cc5ccccc5c5ccccc45)C3C2=O)cc1 (stereo not given) | > 50
O=C1N[C@@H](c2c[nH]c3cc(Br)ccc23)C(=O)N[C@H]1c1c[nH]c2cc(Br)ccc12 | > 100
COc1ccccc1N1CCN(CCCN2/C(=C(\O)c3ccccc3)C(=O)c3c(C)cc(C)nc3S2(=O)=O)CC1 | > 100
CCn1c(SCC(=O)NNC(=S)Nc2ccc(C)cc2)nc2ccccc2c1=O | > 100
NC(=S)Nc1ccc(S(=O)(=O)Nc2ccc(S(N)(=O)=O)cc2)cc1 | > 100
COc1ccc(C2=Nn3c(nnc(Cc4ccc(Cl)cc4)c3=O)SC2)cc1 | > 100
COC1(OC)CC(CO)(CNc2nc(N)nc(Cl)c2/C=N\O)C1 | > 100
Cc1ccc(/C=C2\CCC/C(=C\c3ccc(O)c(CN4CCCCC4)c3)C2=O)cc1 | 18.3
COC(=O)CCc1cc(O)c2c(c1)C(C(=O)OC)C(c1ccc(O)c(O)c1)O2 (stereo not given) | > 100
Cc1ccc2c(c1)C1(C)OC(C=CC1=O)O2 (stereo not given) | 2.38

Tested on: CCRF-CEM leukemia
Test: NCI anticancer screen, dose series, 48 h

SMILES | TGI [µM]
COc1ccc(N2C(=O)C3ON(C(C(N)=O)c4ccccc4)C(c4cc5ccccc5c5ccccc45)C3C2=O)cc1 (stereo not given) | > 50
O=C1N[C@@H](c2c[nH]c3cc(Br)ccc23)C(=O)N[C@H]1c1c[nH]c2cc(Br)ccc12 | > 100
COc1ccccc1N1CCN(CCCN2/C(=C(\O)c3ccccc3)C(=O)c3c(C)cc(C)nc3S2(=O)=O)CC1 | > 100
CCn1c(SCC(=O)NNC(=S)Nc2ccc(C)cc2)nc2ccccc2c1=O | > 100
NC(=S)Nc1ccc(S(=O)(=O)Nc2ccc(S(N)(=O)=O)cc2)cc1 | > 100
COc1ccc(C2=Nn3c(nnc(Cc4ccc(Cl)cc4)c3=O)SC2)cc1 | > 100
COC1(OC)CC(CO)(CNc2nc(N)nc(Cl)c2/C=N\O)C1 | > 100
Cc1ccc(/C=C2\CCC/C(=C\c3ccc(O)c(CN4CCCCC4)c3)C2=O)cc1 | > 29.1
COC(=O)CCc1cc(O)c2c(c1)C(C(=O)OC)C(c1ccc(O)c(O)c1)O2 (stereo not given) | > 48.7
Cc1ccc2c(c1)C1(C)OC(C=CC1=O)O2 (stereo not given) | 0.569

Tested on: OVCAR-3 ovarian
Test: NCI anticancer screen, dose series, 48 h

SMILES | TGI [µM]
COc1ccc(N2C(=O)C3ON(C(C(N)=O)c4ccccc4)C(c4cc5ccccc5c5ccccc45)C3C2=O)cc1 (stereo not given) | > 50
O=C1N[C@@H](c2c[nH]c3cc(Br)ccc23)C(=O)N[C@H]1c1c[nH]c2cc(Br)ccc12 | > 100
COc1ccccc1N1CCN(CCCN2/C(=C(\O)c3ccccc3)C(=O)c3c(C)cc(C)nc3S2(=O)=O)CC1 | > 100
CCn1c(SCC(=O)NNC(=S)Nc2ccc(C)cc2)nc2ccccc2c1=O | > 100
NC(=S)Nc1ccc(S(=O)(=O)Nc2ccc(S(N)(=O)=O)cc2)cc1 | > 100
COc1ccc(C2=Nn3c(nnc(Cc4ccc(Cl)cc4)c3=O)SC2)cc1 | 92.2
COC1(OC)CC(CO)(CNc2nc(N)nc(Cl)c2/C=N\O)C1 | > 100
Cc1ccc(/C=C2\CCC/C(=C\c3ccc(O)c(CN4CCCCC4)c3)C2=O)cc1 | 36.5
COC(=O)CCc1cc(O)c2c(c1)C(C(=O)OC)C(c1ccc(O)c(O)c1)O2 (stereo not given) | > 67.1
Cc1ccc2c(c1)C1(C)OC(C=CC1=O)O2 (stereo not given) | 1.16

Tested on: MCF7 breast
Test: NCI anticancer screen, dose series, 48 h

SMILES | TGI [µM]
COc1ccc(N2C(=O)C3ON(C(C(N)=O)c4ccccc4)C(c4cc5ccccc5c5ccccc45)C3C2=O)cc1 (stereo not given) | > 50
O=C1N[C@@H](c2c[nH]c3cc(Br)ccc23)C(=O)N[C@H]1c1c[nH]c2cc(Br)ccc12 | > 100
COc1ccccc1N1CCN(CCCN2/C(=C(\O)c3ccccc3)C(=O)c3c(C)cc(C)nc3S2(=O)=O)CC1 | > 100
CCn1c(SCC(=O)NNC(=S)Nc2ccc(C)cc2)nc2ccccc2c1=O | > 100
NC(=S)Nc1ccc(S(=O)(=O)Nc2ccc(S(N)(=O)=O)cc2)cc1 | > 100
COc1ccc(C2=Nn3c(nnc(Cc4ccc(Cl)cc4)c3=O)SC2)cc1 | > 100
COC1(OC)CC(CO)(CNc2nc(N)nc(Cl)c2/C=N\O)C1 | > 100
Cc1ccc(/C=C2\CCC/C(=C\c3ccc(O)c(CN4CCCCC4)c3)C2=O)cc1 | 23.1
COC(=O)CCc1cc(O)c2c(c1)C(C(=O)OC)C(c1ccc(O)c(O)c1)O2 (stereo not given) | > 100
Cc1ccc2c(c1)C1(C)OC(C=CC1=O)O2 (stereo not given) | 6.09
